This note sets out measurements from US20130137739A1, “SOLID DISPERSION COMPRISING TRIAZOLE COMPOUND” (Astellas Pharma, Inc., priority 2010, published 2013).

Data set [1] can be described thus: Glass transition point (Tg) by DSC. Format: physicochemical. The following applies: Compound A itself. The procedure: The glass transition point of a solid dispersion can be obtained by subjecting the solid dispersion to calorimetric measurements using DSC and plotting a curve of changes in the amount of heat. In more practical terms a sample of about 10 mg is weighed out onto an aluminum pan and calorimetry is carried out for temperatures from 0° C. and 150° C. with a rate of temperature increase of 5° C. per minute. In the process of heating the sample heat is absorbed or generated at the glass transition point and, as a result, the baseline of the calorimetric curve will shift downward. Extended lines are drawn for the two baselines, namely the original baseline and the shifted baseline, and the glass transition temperature is obtained from the intersection point of the ½ line between the two baselines and the calorimetric curve.
Particles of the solid dispersion (about 10 mg) of each example and comparative example were weighed out on an aluminum pan and calorimetric measurements were made at temperatures between 0° C. to 150° C. with a rate of temperature increase of 5° C. per minute. Heat was absorbed or generated at the glass transition point in the course of heating the sample and, as a result, the baseline of the calorimetric curve shifted downward. […]

Data set [2] can be described thus: Solubility of Compound A in water and organic solvents. Format: physicochemical.

≈ marks a conversion by molar mass, not a printed value. Where two headings read alike, the source gives them in different places.

By solubility is commonly meant how much of the substance goes into solution per volume. Turning to `COc1ccc(-c2nc(OC)nn2-c2ccc(OC)cc2)cc1` [Compound A, 3-methoxy-1,5-bis(4-methoxyphenyl)-1H-1,2,4-triazole], in data set [1], the “glass transition point of Compound A” value worked out at 4 °C. In addition, the solubility in data set [2] (acetone, organic solvent or mixture, room temperature, read-out: solubility in organic solvent: acetone) is 82.2 mg/mL (≈ 264 mM); in data set [2] (ethanol, organic solvent or mixture, room temperature, read-out: solubility in organic solvent: ethanol), 15.9 mg/mL (≈ 51.1 mM); in data set [2] (polyethylene glycol, organic solvent or mixture, room temperature, read-out: solubility in organic solvent: polyethylene glycol) it was 6.3 mg/mL (≈ 20.2 mM); in data set [2] (water, 37° C., read-out: solubility in water) it was 0.0107 mg/mL (≈ 0.0344 mM).
